Results on two molecules are retold here after PMC5762859, “Distribution analysis of epertinib in brain metastasis of HER2-positive breast cancer by imaging mass spectrometry and prospect for antitumor activity” (Scientific Reports, 2018).

For series [1] the following is noted: healthy volunteers, single oral 250 mg [14C]-lapatinib; cited from earlier work.
The target of series [2] is T1, P-glycoprotein (P-gp) (Homo sapiens, UniProt P08183).
T1 construct: permeability and efflux ratio of epertinib across Caco-2 cell monolayers; endogenous in cells; host or cells: Caco-2
Particulars: cited from earlier work.

The target in series [3] is T2, breast cancer resistance protein (BCRP) (Homo sapiens, UniProt Q9UNQ0).
T2 construct: permeability and efflux ratio of epertinib across Caco-2 cell monolayers; endogenous in cells; host or cells: Caco-2
T2 sequence (Q9UNQ0 1-655): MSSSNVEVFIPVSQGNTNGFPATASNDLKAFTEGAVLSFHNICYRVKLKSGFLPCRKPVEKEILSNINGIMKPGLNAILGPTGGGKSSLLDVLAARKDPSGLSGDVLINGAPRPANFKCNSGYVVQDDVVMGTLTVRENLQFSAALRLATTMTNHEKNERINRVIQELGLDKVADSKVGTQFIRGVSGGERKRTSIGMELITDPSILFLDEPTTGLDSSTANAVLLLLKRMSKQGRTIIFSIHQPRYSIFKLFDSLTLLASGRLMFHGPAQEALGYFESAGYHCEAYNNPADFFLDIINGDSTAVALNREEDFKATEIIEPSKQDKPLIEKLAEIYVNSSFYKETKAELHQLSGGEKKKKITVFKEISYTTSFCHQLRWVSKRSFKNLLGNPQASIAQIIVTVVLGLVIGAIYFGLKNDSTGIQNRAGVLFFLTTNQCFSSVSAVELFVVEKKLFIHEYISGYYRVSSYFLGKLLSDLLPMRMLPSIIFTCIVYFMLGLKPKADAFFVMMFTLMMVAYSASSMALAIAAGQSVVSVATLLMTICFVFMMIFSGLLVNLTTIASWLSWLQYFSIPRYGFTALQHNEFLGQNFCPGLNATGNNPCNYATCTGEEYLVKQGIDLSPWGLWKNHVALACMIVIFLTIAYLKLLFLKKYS
To be noted: cited from earlier work.

For series [4], the system named is MDA-MB-361 cell line. Put plainly: In vitro growth inhibition of parental cell line. Particulars: Homo sapiens. It counts as cell-based. An excerpt:
(§1) We evaluated the inhibitory activity of epertinib on the in vitro growth of the parental cell line, MDA-MB-361. […] To compare the growth inhibitory activity of epertinib on the parental and metastatic (BR2) cell lines, we evaluated the antitumor activity of epertinib in both cell lines. […] To confirm the antitumor activity of epertinib in the IVM, we examined the effect of epertinib on the IVM transplanted BR2.

Series [5] deals with MDA-MB-361-luc-BR2. The series is described as follows: Mammary fat pad implantation model, antitumor activity. Particulars: Mus musculus, 672 h; BR2 in mammary fat pad, oral daily for 28 days. The format is in vivo, mice.
Text: as §1
(§2) Figure 6 In vivo antitumor activity of epertinib in the breast cancer IVM. Epertinib inhibits the growth of breast cancer in animal models. In each animal model, vehicle or indicated doses of epertinib were orally administered daily. Tumor volume was measured twice or thrice weekly and the mean tumor volume with SD is represented by each data point. Human breast cancer cells, MDA-MB-361 (A) or MDA-MB-361-luc-BR2 (B) was implanted orthotopically into the mammary fat pad of mice. Tumor-bearing mice were treated for 28 days (A and B). Tumor growth in the breast cancer IVM ([…]) was monitored by the photons emitted from the tumor as an indicator, which was measured with an IVIS Imaging System 200 (Caliper Life Sciences). […] The photons were measured once or twice weekly and the mean photons/sec with SD are presented at each data point (n = 3 for vehicle, n = 4 for 50 mg/kg of epertinib) (C). […]

For series [6], the system named is MDA-MB-361. The series is described as above. The format is in vivo, mice. Particulars: Mus musculus, 672 h; MDA-MB-361 in mammary fat pad, oral daily for 28 days.
Text: as §1, §2

Series [7] relates to experimental brain metastasis of HER2-positive breast cancer (IVM). Put plainly: Antitumor activity in the breast cancer IVM (bioluminescence). The format is in vivo, mice. To be noted: once daily oral 50 mg/kg, 30 days, photons emitted from tumor.
Text: as §1, §2

The nature of series [8]: Plasma radioactivity and epertinib after single oral [14C]-epertinib hydrochloride in rats. It counts as in vivo. From the text: We used quantitative IMS to analyze and compare the distribution of epertinib and lapatinib in brain metastasis. IMS can simultaneously detect diverse molecules and obtain spatial distribution information capable of distinguishing between a drug and its metabolites in tissue sections[21],[35]. Historically, drug metabolism and pharmacokinetic studies have used radiolabels to perform autoradiography and obtain information about tissue distribution. Previously, plasma concentrations of radioactivity and epertinib were determined after a single oral administration of [^14C]-epertinib hydrochloride at a dose of 5 mg/kg (as epertinib) in rats (Supplementary Fig. S3). […] The AUC0–12 h and AUCinf values were 126 ± 18 and 392 ± 316 ng·h/mL, respectively. The plasma epertinib/radioactivity concentration ratio ranged from 10.9% to 16.2% through the measurable points, and the AUCinf ratio was ~20.8 ± 15.0%.
Supplementa ry Figure S3. Concentration of radioactivity and epertinib in plasma after single oral administration of [14C]-epertinib hydrochloride to non-f as ti ng male rats (dose: 5 mg as epertinib /kg)
Data ar e ex pressed as the mean values + SD o f fou r animals.
(1 picture or pasted object on this page, not shown here)

For series [9], the target named is T2, breast cancer resistance protein (BCRP). The series is described as follows: BCRP substrate assessment. The format is in vitro ADME. Particulars: from permeability and efflux ratio across Caco-2 cell monolayers.
In series [10] the test system is HER2-positive metastatic breast cancer patients. More on the design: method as in earlier work. To be noted: cited from earlier work; for Objective response rate (ORR): heavily pretreated HER2-positive metastatic breast cancer.

Read-outs that look alike come from different tables or passages of the source.

T1 sequence (P08183 whole entry): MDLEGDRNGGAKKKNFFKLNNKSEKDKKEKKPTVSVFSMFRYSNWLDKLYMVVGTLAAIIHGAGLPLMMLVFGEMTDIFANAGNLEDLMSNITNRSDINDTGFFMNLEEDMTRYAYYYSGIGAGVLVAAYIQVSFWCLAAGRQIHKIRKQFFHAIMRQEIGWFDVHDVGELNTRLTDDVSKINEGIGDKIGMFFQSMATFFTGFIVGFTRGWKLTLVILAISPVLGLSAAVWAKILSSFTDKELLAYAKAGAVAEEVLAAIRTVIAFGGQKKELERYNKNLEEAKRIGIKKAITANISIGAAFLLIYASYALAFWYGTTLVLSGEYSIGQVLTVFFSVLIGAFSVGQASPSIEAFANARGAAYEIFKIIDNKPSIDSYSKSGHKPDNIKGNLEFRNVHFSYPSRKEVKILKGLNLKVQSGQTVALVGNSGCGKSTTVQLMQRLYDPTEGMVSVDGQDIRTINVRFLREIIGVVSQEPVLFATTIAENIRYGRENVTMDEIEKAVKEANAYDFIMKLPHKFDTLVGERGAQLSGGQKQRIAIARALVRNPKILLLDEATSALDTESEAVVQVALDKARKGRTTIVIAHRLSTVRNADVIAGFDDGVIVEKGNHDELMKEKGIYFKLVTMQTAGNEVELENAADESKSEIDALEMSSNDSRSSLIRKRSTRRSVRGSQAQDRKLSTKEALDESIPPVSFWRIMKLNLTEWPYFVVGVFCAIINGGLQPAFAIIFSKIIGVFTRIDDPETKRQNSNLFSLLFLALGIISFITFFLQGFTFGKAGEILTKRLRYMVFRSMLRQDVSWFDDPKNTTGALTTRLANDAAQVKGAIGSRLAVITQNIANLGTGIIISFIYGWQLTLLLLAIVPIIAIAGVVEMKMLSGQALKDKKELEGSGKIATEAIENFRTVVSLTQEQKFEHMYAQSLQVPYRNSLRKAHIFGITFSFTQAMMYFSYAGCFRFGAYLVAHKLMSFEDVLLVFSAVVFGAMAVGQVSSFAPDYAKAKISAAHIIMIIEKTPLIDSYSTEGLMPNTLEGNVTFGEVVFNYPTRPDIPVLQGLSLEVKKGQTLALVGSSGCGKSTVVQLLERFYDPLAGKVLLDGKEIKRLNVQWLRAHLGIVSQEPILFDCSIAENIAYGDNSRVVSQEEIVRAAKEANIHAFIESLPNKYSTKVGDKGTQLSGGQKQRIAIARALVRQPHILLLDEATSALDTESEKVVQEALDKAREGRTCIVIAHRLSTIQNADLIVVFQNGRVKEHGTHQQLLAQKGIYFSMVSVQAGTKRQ

In the case of `CS(=O)(=O)CCNCc1ccc(-c2ccc3ncnc(Nc4ccc(OCc5cccc(F)c5)c(Cl)c4)c3c2)o1` [Lapatinib, N-{3-chloro-4-[(3-fluorobenzyl)oxy]phenyl}-6-[5-({[2-(methylsulfonyl)ethyl]amino}methyl)-2-furyl]-4-quinazolinamine, reference compound], in series [1], the “Mean plasma concentration of lapatinib at Cmax” value is 330 ng/mL. For the same molecule, the P-gp substrate result in series [2] is on record as “substrates”. In series [3], the BCRP substrate result was “substrates”.
`CC#CC(=NOCC1COCCN1)c1ccc2ncnc(Nc3ccc(OCc4cccc(F)c4)c(Cl)c3)c2c1` (centres unmarked) [Epertinib]: the IC50 (commonly the concentration that gives 50% inhibition) in [4] is 26.5 nM. Also, the ED50 (usually the dose that gives a 50% effect, or the effect in half of the subjects) is 26.5 mg/kg in series [5] and 24.1 mg/kg in series [6]. Further, in [7], the “Effect on brain tumor volume” value is recorded as “significantly reduced the brain tumor volume”. Besides, the “Epertinib/radioactivity AUCinf ratio” value in series [8] is ~ 20.8 ± 15.0%. For the same molecule, in series [8] (male, rat, plasma, single oral 5 mg/kg [14C]-epertinib hydrochloride, read-out: AUC0–12 h of epertinib), the AUC(0-t) came out at 126 ± 18 ng·h/mL. For the same molecule, the AUC(0-inf) in series [8] (male, rat, plasma, single oral 5 mg/kg [14C]-epertinib hydrochloride, read-out: AUCinf of epertinib) was determined as 392 ± 316 ng·h/mL. For the same molecule, in series [8] (male, rat, plasma, single oral 5 mg/kg [14C]-epertinib hydrochloride, read-out: Plasma concentration of epertinib, Cmax), the Cmax was found to be 14.1 ± 3.6 ng/mL. Also, in series [8] (single oral 5 mg/kg [14C]-epertinib hydrochloride), the “Time of Cmax of plasma epertinib” value is 5.00 ± 1.15 h. In addition, the BCRP substrate result in [9] is “not a substrate”. Moreover, in series [10] (all the participants in a clinical trial), the “Tumor reduction (partial response), brain metastases as the target lesion” value is “two of 45”. Further, the “Objective response rate (ORR)” value in [10] (in combination with trastuzumab and capecitabine) is on record as 56%; in [10] (in combination with trastuzumab), 67%. In [10] (in combination with trastuzumab, patients previously treated with lapatinib plus capecitabine or ado-trastuzumab emtansine), the “Tumor response (patients)” value is on record as “seven of 21”.
